Where two headings read alike, the source gives them in different places.
Legend:
A2780 cells = test: Cell Proliferation Assay (Cell Titer Glo), A2780; assay type: cell-based; details: Homo sapiens, read-out: CPEC50 A2780
In short: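 Cells seeded at 1000/well, allowed to adhere 3-5 h, then exposed to DMSO-dissolved compounds for 3 days at 37° C., 5% CO2. Medium replaced before Cell Titer Glo addition; luminescence read after 10 min.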

PDK1 kinase = target: T1, PDK1 kinase (Homo sapiens, UniProt O15530); test: PDK1 Kinase Alpha Screen Assay; assay type: biochemical; details: read-out: PDK1 IC50
T1 sequence (O15530 1-556): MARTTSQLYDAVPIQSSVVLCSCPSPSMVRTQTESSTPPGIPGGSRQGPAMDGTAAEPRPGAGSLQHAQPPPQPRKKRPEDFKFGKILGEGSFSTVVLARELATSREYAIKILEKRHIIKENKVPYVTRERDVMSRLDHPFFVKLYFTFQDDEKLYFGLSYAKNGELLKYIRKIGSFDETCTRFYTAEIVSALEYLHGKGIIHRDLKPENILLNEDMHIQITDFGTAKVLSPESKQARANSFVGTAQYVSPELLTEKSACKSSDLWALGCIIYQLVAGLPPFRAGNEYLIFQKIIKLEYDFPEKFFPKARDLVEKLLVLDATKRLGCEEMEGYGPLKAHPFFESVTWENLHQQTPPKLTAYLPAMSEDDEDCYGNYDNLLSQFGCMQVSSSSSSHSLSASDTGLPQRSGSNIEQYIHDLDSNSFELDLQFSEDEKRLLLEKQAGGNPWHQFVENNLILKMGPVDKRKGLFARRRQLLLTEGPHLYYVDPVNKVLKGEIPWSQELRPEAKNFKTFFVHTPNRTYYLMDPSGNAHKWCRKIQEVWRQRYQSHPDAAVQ
In short: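 PDK1 phosphorylated 50 nM biotinylated PDK1-4 peptide with 10 uM ATP in Tris pH 7.5, 10 mM MgCl2, 2 mM DTT, 2.5% DMSO for 3-18 hours. After EDTA stop, phosphopeptide was detected by AlphaScreen using phospho-(Ser/Thr) PKA substrate antibody with protein A/streptavidin beads, read after overnight incubation.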

[1] = 72 h, A2780 cells, 3 days incubation
[2] = Cell Proliferation Assay, A2780

EC50 (A2780 cells; [2]) [µM]	IC50 (PDK1 kinase; PDK1 Kinase Alpha Screen Assay) [µM]	Compound	EC50 (A2780 cells; [1]) [µM]	IC50 (PDK1 kinase) [µM]
		CN(C)[C@H]1CCN(C(=O)c2cccc3cnc(Nc4ccc(S(N)(=O)=O)cc4)nc23)C1 [Compound 143, 4-[8-((S)-3-Dimethylamino-pyrrolidine-1-carbonyl)-quinazolin-2-ylamino]-benzenesulfonamide]	5 to 10	< 5
		NS(=O)(=O)c1ccc(Nc2ncc3cccc(C(=O)N[C@H]4CN5CCC4CC5)c3n2)cc1 [Compound 144, 2-(4-Sulfamoyl-phenylamino)-quinazoline-8-carboxylic acid (R)-3-quinuclidinylamide]	5 to 10	5 to 10
5 to 10	< 5	CC(=O)Nc1ccc(Nc2ncc3cccc(OC(C)C)c3n2)cc1 [Compound 311, N-(4-(8-isopropoxyquinazolin-2-ylamino)phenyl)acetamide]		
5 to 10	< 5	CC(=O)NS(=O)(=O)c1ccc(Nc2ncc3cccc(OC(C)C)c3n2)cc1 [Compound 312, N-(4-(8-isopropoxyquinazolin-2-ylamino)phenylsulfonyl)acetamide]		
< 5	5 to 10	CC(C)Oc1cccc2cnc(Nc3ccc(NC(=O)CN(C)C)cc3)nc12 [Compound 313, 2-(dimethylamino)-N-(4-(8-isopropoxyquinazolin-2-ylamino)phenyl)acetamide]		
< 5	< 5	Nc1ccc2cnc(Nc3ccc(S(N)(=O)=O)cc3)nc2c1 [Compound 315, 4-(7-aminoquinazolin-2-ylamino]-benzenesulfonamide]		
< 5	< 5	CC(=O)Nc1ccc2cnc(Nc3ccc(S(N)(=O)=O)cc3)nc2c1 [Compound 316, N-(2-(4-sulfamoylphenylamino)quinazolin-7-yl)acetamide]		
< 5	< 5	NS(=O)(=O)c1ccc(Nc2ncc3cccc(OCc4ccc5nnsc5c4)c3n2)cc1 [Compound 386, 4-(8-(benzo[d][1,2,3]thiadiazol-6-ylmethoxy)quinazolin-2-ylamino)benzenesulfonamide]		
< 5	< 5	NS(=O)(=O)c1ccc(Nc2ncc3cc(Br)cc(O)c3n2)cc1 [Compound 388, 4-(6-bromo-8-hydroxyquinazolin-2-ylamino)benzenesulfonamide]		
5 to 10	< 5	NS(=O)(=O)c1ccc(Nc2ncc3cccc(OCCCn4c(=O)[nH]c5ccccc54)c3n2)cc1 [Compound 391, 4-(8-(3-(2-oxo-2,3-dihydro-1H-benzo[d]imidazol-1-yl)propoxy)quinazolin-2-ylamino)benzenesulfonamide]		
< 5	< 5	COCCN(C)Cc1cccc2cnc(Nc3ccc(S(N)(=O)=O)cc3)nc12 [Compound 392, 4-(8-(((2-methoxyethyl)(methyl)amino)methyl)quinazolin-2-ylamino)benzenesulfonamide]		
< 5	< 5	COc1cccc(Oc2cccc3cnc(Nc4ccc(S(N)(=O)=O)cc4)nc23)c1 [Compound 406, 4-(8-(3-methoxyphenoxy)quinazolin-2-ylamino)benzenesulfonamide]		
< 5	< 5	COc1ccc(Oc2cccc3cnc(Nc4ccc(S(N)(=O)=O)cc4)nc23)cc1 [Compound 407, 4-(8-(4-methoxyphenoxy)quinazolin-2-ylamino)benzenesulfonamide]		
5 to 10	< 5	N#Cc1ccc(Oc2cccc3cnc(Nc4ccc(S(N)(=O)=O)cc4)nc23)cc1 [Compound 409, 4-(8-(4-cyanophenoxy)quinazolin-2-ylamino)benzenesulfonamide]		
< 5	< 5	COc1cccc(Oc2ccc3cnc(Nc4ccc(S(N)(=O)=O)cc4)nc3c2)c1 [Compound 415, 4-(7-(3-methoxyphenoxy)quinazolin-2-ylamino)benzenesulfonamide]		
< 5	5 to 10	NS(=O)(=O)c1ccc(Nc2ncc3ccc(Br)c(O)c3n2)cc1 [Compound 421, 4-(7-bromo-8-hydroxyquinazolin-2-ylamino)benzenesulfonamide]		
5 to 10	< 5	CNS(=O)(=O)Cc1ccc(Nc2ncc3cccc(OC)c3n2)cc1 [Compound 498, 1-(4-(8-methoxyquinazolin-2-ylamino)phenyl)-N-methylmethanesulfonamide]		
5 to 10	< 5	CC(C)Oc1cccc2cnc(Nc3ccc(S(=O)(=O)N4CCN(C)CC4)cc3)nc12 [Compound 499, 8-isopropoxy-N-(4-(4-methylpiperazin-1-ylsulfonyl)phenyl)quinazolin-2-amine]		

EC50 (A2780 cells; [2]) [µM]	IC50 (PDK1 kinase; PDK1 Kinase Alpha Screen Assay) [µM]	Compound	EC50 (A2780 cells; [1]) [µM]	IC50 (PDK1 kinase) [µM]
< 5	< 5	CN(C)CCOc1cccc2cnc(Nc3ccc(C(N)=O)cc3)nc12 [Compound 504, 4-(8-(2-(dimethylamino)ethoxy)quinazolin-2-ylamino)benzamide]		
< 5	< 5	NC(=O)c1ccc(Nc2ncc3cccc(OC4CCCC4)c3n2)cc1 [Compound 505, 4-(8-(cyclopentyloxy)quinazolin-2-ylamino)benzamide]		
< 5	< 5	CC(C)Oc1cccc2cnc(Nc3ccc(C(N)=O)cc3)nc12 [Compound 506, 4-(8-isopropoxyquinazolin-2-ylamino)benzamide]		
5 to 10	< 5	NCCOc1cccc2cnc(Nc3ccccc3)nc12 [Compound 507, 8-(2-aminoethoxy)-N-phenylquinazolin-2-amine]		
5 to 10	5 to 10	CC(C)(C(N)=O)C(=O)NCCOc1cccc2cnc(Nc3ccccc3)nc12 [Compound 508, 2,2-dimethyl-N1-(2-(2-(phenylamino)quinazolin-8-yloxy)ethyl)malonamide]		
< 5	< 5	NS(=O)(=O)c1ccc(Nc2ncc3cccc(OCCN4CCOCC4)c3n2)cc1 [Compound 510, 4-(8-(2-mropholinoethoxy)quinazolin-2-ylamino)benzenesulfonamide]		
< 5	< 5	NC(=O)c1cccc(COc2cccc3cnc(Nc4ccc(S(N)(=O)=O)cc4)nc23)c1 [Compound 513, 3-((2-(4-sulfamoylphenylamino)quinazolin-8-yloxy)methyl)benzamide]		
< 5	< 5	CC(=O)Nc1ccc(COc2cccc3cnc(Nc4ccc(S(N)(=O)=O)cc4)nc23)cc1 [Compound 514, N-(4-((2-(4-sulfamoylphenylamino)quinazolin-8-yloxy)methyl)phenyl)acetamide]		
< 5	< 5	CNC(=O)c1ccc(Nc2ncc3cccc(OC(C)C)c3n2)cc1 [Compound 515, 4-(8-isopropoxyquinazolin-2-ylamino)-N-methylbenzamide]		
< 5	< 5	CC(C)NC(=O)c1ccc(Nc2ncc3cccc(OC(C)C)c3n2)cc1 [Compound 516, 4-(8-isopropoxyquinazolin-2-ylamino)-N-isopropylbenzamide]		
< 5	< 5	CNS(=O)(=O)c1ccc(Nc2ncc3cccc(OC(C)C)c3n2)cc1 [Compound 517, 4-(8-isopropoxyquinazolin-2-ylamino)-N-methylbenzenesulfonamide]		
5 to 10	5 to 10	NS(=O)(=O)c1ccc(Nc2ncc3cccc(OCC(=O)N4CCOCC4)c3n2)cc1 [Compound 518, 4-(8-(2-morpholino-2-oxoethoxy)quinazolin-2-ylamino)benzenesulfonamide]		
< 5	< 5	CC(C)Oc1cccc2cnc(Nc3ccc(S(C)(=O)=O)cc3)nc12 [Compound 554, 8-isopropoxy-N-(4-(methylsulfonyl)phenyl)quinazolin-2-amine]		
< 5	< 5	CC(C)Oc1cccc2cnc(Nc3cccc(S(C)(=O)=O)c3)nc12 [Compound 555, 8-isopropoxy-N-(3-(methylsulfonyl)phenyl)quinazolin-2-amine]		
< 5	< 5	CC(C)Oc1cccc2cnc(Nc3cccc(S(N)(=O)=O)c3)nc12 [Compound 556, 3-(8-isopropoxyquinazolin-2-ylamino)benzenesulfonamide]		
5 to 10	< 5	NS(=O)(=O)c1ccc(Nc2ncc3ccc(C(=O)O)cc3n2)cc1 [Compound 559, 2-(4-sulfamoylphenylamino)quinazoline-7-carboxylic acid]		
< 5	< 5	CNC(=O)c1ccc2cnc(Nc3ccc(S(N)(=O)=O)cc3)nc2c1 [Compound 561, N-methyl-2-(4-sulfamoylphenylamino)quinazoline-7-carboxamide]		

Compound	EC50 (A2780 cells; [2]) [µM]	IC50 (PDK1 kinase; PDK1 Kinase Alpha Screen Assay) [µM]	EC50 (A2780 cells; [1]) [µM]	IC50 (PDK1 kinase) [µM]
CC(C)COc1cccc2cnc(Nc3ccc(S(N)(=O)=O)cc3)nc12 [Compound 310, 4-(8-isobutoxyquinazolin-2-ylamino)benzenesulfonamide]	< 5	< 5		

— patent publication US7932262B2 (Novartis AG, priority 2006, dated 2011)
